Measurements published in ChEMBL document CHEMBL1138912, “Dipeptidyl nitriles as human dipeptidyl peptidase I inhibitors” (Bioorg Med Chem Lett, 2006).
The source made the active and inactive calls. No cut-off for these calls is given here.

Key:
[1] = Metabolic stability in rat liver microsomes after 15 min; type: ADME, Microsome; details: read-out: Stability
Dipeptidyl peptidase 1 [2] = target: T1, Dipeptidyl peptidase 1 (Homo sapiens, UniProt P53634); experiment: Inhibition of human DPP1
Dipeptidyl peptidase 1 [3] = target: T1, Dipeptidyl peptidase 1; experiment: Residual activity at human DPP1 at 10 uM
Pro-cathepsin H = target: T2, Pro-cathepsin H (Homo sapiens, UniProt P09668); experiment: Inhibition of Cathepsin H
T2 sequence (P09668 whole entry): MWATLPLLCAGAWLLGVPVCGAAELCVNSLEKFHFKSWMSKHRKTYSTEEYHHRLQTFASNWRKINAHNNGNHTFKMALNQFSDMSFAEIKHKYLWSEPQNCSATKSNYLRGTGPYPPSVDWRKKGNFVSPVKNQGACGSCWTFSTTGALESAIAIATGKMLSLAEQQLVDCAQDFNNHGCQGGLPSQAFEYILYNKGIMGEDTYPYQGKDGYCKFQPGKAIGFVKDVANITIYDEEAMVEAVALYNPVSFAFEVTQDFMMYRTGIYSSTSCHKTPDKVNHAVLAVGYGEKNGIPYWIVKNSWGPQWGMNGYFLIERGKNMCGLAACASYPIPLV

Cytochrome P450 2C9 = Cytochrome P450 2C9 (Homo sapiens, UniProt P11712); experiment: Inhibition of CYP2C9; type: ADME
Cathepsin B = Cathepsin B (Homo sapiens, UniProt P07858); experiment: Inhibition of Cathepsin B
Cytochrome P450 2C19 = Cytochrome P450 2C19 (Homo sapiens, UniProt P33261); experiment: Inhibition of CYP2C19; type: ADME
Procathepsin L = Procathepsin L (Homo sapiens, UniProt P07711); experiment: Inhibition of Cathepsin L
Dipeptidyl peptidase 1 [4] = target: T1, Dipeptidyl peptidase 1; experiment: Inhibition of human DPP1 at 20 uM

T1 sequence (P53634 25-134 limits assumed): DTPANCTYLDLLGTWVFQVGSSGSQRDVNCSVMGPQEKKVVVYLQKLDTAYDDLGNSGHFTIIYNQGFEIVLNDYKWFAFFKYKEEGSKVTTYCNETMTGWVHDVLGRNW
T1 sequence (P53634 231-394 limits assumed): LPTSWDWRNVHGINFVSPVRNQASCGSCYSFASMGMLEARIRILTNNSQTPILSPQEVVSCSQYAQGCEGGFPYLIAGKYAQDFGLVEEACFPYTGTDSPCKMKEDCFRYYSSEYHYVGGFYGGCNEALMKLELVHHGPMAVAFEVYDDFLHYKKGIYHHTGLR
T1 sequence (P53634 395-463 limits assumed): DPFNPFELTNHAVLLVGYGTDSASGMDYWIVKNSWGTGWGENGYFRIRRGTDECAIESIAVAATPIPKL
Sequence of Procathepsin L (P07711 whole entry): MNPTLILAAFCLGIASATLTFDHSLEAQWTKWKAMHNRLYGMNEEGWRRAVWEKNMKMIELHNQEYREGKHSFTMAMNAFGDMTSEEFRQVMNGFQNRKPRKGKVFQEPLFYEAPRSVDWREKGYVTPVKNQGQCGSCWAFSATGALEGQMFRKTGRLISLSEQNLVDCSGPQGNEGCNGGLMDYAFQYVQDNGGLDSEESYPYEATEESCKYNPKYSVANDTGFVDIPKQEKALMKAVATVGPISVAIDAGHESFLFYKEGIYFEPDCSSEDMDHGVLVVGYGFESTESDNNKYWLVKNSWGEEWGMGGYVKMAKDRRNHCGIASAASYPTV
Sequence of Cytochrome P450 2C19 (P33261 whole entry): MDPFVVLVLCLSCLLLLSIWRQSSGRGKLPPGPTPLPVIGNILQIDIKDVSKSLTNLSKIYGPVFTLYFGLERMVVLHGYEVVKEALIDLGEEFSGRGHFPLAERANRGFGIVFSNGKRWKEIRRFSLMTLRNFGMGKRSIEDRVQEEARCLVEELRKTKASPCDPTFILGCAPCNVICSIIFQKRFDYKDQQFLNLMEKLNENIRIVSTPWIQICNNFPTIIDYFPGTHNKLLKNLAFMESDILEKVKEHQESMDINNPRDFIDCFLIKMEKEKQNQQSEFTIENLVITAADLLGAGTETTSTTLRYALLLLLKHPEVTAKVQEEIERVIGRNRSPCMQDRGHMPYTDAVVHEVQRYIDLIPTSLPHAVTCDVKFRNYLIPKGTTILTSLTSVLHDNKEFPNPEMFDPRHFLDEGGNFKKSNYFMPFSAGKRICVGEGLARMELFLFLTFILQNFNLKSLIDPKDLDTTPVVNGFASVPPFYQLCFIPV
Sequence of Cytochrome P450 2C9 (P11712 whole entry): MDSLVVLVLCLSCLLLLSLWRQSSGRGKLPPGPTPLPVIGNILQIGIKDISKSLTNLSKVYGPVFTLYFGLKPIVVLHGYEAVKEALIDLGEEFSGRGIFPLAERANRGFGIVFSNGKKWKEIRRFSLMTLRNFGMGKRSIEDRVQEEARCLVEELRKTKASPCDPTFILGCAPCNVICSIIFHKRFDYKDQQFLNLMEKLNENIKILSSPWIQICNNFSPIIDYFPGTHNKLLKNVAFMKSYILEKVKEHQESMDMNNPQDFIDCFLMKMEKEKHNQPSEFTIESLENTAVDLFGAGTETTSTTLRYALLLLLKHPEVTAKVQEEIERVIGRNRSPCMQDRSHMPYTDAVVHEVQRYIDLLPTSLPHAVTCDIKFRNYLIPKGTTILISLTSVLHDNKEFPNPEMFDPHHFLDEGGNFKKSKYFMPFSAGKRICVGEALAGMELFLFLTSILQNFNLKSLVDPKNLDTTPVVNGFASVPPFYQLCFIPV

| SMILES | remaining at 0.25 h [1] [%] | IC50 (Dipeptidyl peptidase 1 [2]) [nM] | other results |
| --- | --- | --- | --- |
| CC[C@H](N)C(=O)N[C@H](C#N)Cc1ccc(Cl)cc1 | 70 | 96 | – |
| CC[C@H](N)C(=O)N[C@H](C#N)C/C=C/c1ccccc1 | – | 137 | – |
| N#C[C@H](Cc1ccccc1)NC(=O)[C@@H]1CCCN1 | 39 | 9640 | – |
| CC[C@H](N)C(=O)N(C)[C@H](C#N)Cc1ccccc1 | – | – | Activity (Dipeptidyl peptidase 1 [3]): 94% |
| CC[C@H](N)C(=O)N[C@H](C#N)Cc1ccc(-c2ccccc2)cc1 | – | – | IC50 (Pro-cathepsin H): > 10000 nM; IC50 (Cytochrome P450 2C9): > 20000 nM; IC50 (Cathepsin B): > 10000 nM; IC50 (Cytochrome P450 2C19): > 20000 nM; IC50 (Procathepsin L): > 10000 nM |
| N#C[C@H](Cc1ccccc1)N1CC[C@H](N)C1=O | – | – | inhibition (Dipeptidyl peptidase 1 [4]): inactive |

More lines, main results first:

| remaining at 0.25 h [1] [%] | IC50 (Dipeptidyl peptidase 1 [2]) [nM] | SMILES | other results |
| --- | --- | --- | --- |
| 45 | 418 | N#CC(Cc1ccccc1)NC(=O)[C@@H](N)Cc1ccccc1 (stereo in doubt; 8) | – |
| 80 | 172 | CC[C@H](N)C(=O)N[C@H](C#N)Cc1ccccc1 | – |
| – | 6300 | N#CC(Cc1ccccc1)NC(=O)[C@@H](N)Cc1ccccc1 (single isomer, unassigned; isomer B) | – |
| 74 | 822 | CC[C@H](N)C(=O)N[C@H](C#N)CCc1ccccc1 | – |
| – | 294 | N#CC(Cc1ccccc1)NC(=O)[C@@H](N)Cc1ccccc1 (stereo in doubt) | – |
| – | 4790 | N#C[C@H](Cc1ccccc1)NC(=O)CN | – |
